The test system of one assay is K562. Description: Cytotoxicity against human K562 cells assessed as reduction in cell viability by MTT assay. It is filed as functional, cell-based.
In the next assay the test system is Edwardsiella tarda. Description: Antimicrobial activity against Edwardsiella tarda assessed as reduction in bacterial growth by agar dilution method. It is filed as functional.
For a further assay, the system named is A549. Description: Cytotoxicity against human A549 cells assessed as reduction in cell viability by SRB assay. Format: functional, cell-based.
A further assay has as its system PC-3. Put plainly: Cytotoxicity against human PC-3 cells assessed as reduction in cell viability by SRB assay. Format: functional, cell-based.
The next assay relates to U-87 MG. Put plainly: Cytotoxicity against human U87 cells assessed as reduction in cell viability by SRB assay. It is filed as functional, cell-based, U-87MG ATCC.
A further assay deals with ASPC1. Description: Cytotoxicity against human ASPC1 cells assessed as reduction in cell viability by SRB assay. It is filed as functional, cell-based.
The next assay has as its system NCI-H446. Description: Cytotoxicity against human NCI-H446 cells assessed as reduction in cell viability by SRB assay. Format: functional, cell-based.
For a further assay, the system named is Staphylococcus aureus. Put plainly: Antimicrobial activity against methicillin-resistant Staphylococcus aureus assessed as reduction in bacterial growth by agar dilution method. Format: functional.
A further assay has as its system Escherichia coli. Description: Antimicrobial activity against Escherichia coli assessed as reduction in bacterial growth by agar dilution method. It is filed as functional.
The next assay relates to Staphylococcus. Put plainly: Antimicrobial activity against methicillin-resistant coagulase-negative Staphylococci assessed as reduction in bacterial growth by agar dilution method. It is filed as functional.
A further assay relates to Bel-7402. Description: Cytotoxicity against human Bel-7402 cells assessed as reduction in cell viability by SRB assay. It is filed as functional, cell-based.
The test system of another assay is GES1. Put plainly: Cytotoxicity against human GES1 cells assessed as reduction in cell viability by SRB assay. It is filed as functional, cell-based.
The subject of a further assay is Proteus mirabilis. Put plainly: Antimicrobial activity against Proteus mirabilis assessed as reduction in bacterial growth by agar dilution method. It is filed as functional.
For a further assay, the system named is SH-SY5Y. Put plainly: Cytotoxicity against human SH-SY5Y cells assessed as reduction in cell viability by SRB assay. It is filed as functional, cell-based.
Assay [1] is described as follows: Cytotoxicity against human HO-8910 cells assessed as reduction in cell viability by SRB assay. It is filed as functional, cell-based.
In another assay the test system is HeLa. Put plainly: Cytotoxicity against human HeLa cells assessed as reduction in cell viability by SRB assay. It is filed as functional, cell-based.
In a further assay the test system is MDA-MB-231. Description: Cytotoxicity against human MDA-MB-231 cells assessed as reduction in cell viability by SRB assay. Format: functional, cell-based.
The next assay deals with MCF7. Description: Cytotoxicity against human MCF7 cells assessed as reduction in cell viability by SRB assay. Format: functional, cell-based.
A further assay has as its system Vibrio parahaemolyticus. Description: Antimicrobial activity against Vibrio parahaemolyticus assessed as reduction in bacterial growth by agar dilution method. It is filed as functional.
The test system of a further assay is Acinetobacter baumannii. Description: Antimicrobial activity against Acinetobacter baumannii assessed as reduction in bacterial growth by agar dilution method. Format: functional.
For the next assay, the system named is MGC-803. Put plainly: Cytotoxicity against human MGC-803 cells assessed as reduction in cell viability by SRB assay. Format: functional, cell-based.
For the next assay, the system named is HCT-116. Put plainly: Cytotoxicity against human HCT-116 cells assessed as reduction in cell viability by SRB assay. Format: functional, cell-based.
For a further assay, the system named is Bacillus subtilis. Put plainly: Antimicrobial activity against Bacillus subtilis assessed as reduction in bacterial growth by agar dilution method. It is filed as functional.
The subject of the next assay is L02. Put plainly: Cytotoxicity against human L02 cells assessed as reduction in cell viability by SRB assay. It is filed as cell-based.
For another assay, the system named is Bacillus cereus. Description: Antimicrobial activity against Bacillus cereus assessed as reduction in bacterial growth by agar dilution method. It is filed as functional.
A further assay deals with Mycolicibacterium phlei. Description: Antimicrobial activity against Mycobacterium phlei assessed as reduction in bacterial growth by agar dilution method. Format: functional.

Values after ≈ are worked out from the molar mass of the structure shown. A value given as a limit tells only on which side of the number the result lay.

`CCCCCCC1C([C@@H](O)C(=O)[C@H](O)CCC)C=C2C3(OC)OC(=O)[C@]2(C)CC2=C(C(=O)OC2=O)C13` (stereo partly specified): the 50% inhibitory concentration (IC50) with K562, in the assay with A549, in the assay on PC-3, in the assay with U-87 MG, in the assay on ASPC1 and in the assay on NCI-H446 was above 30 µM in each case. For the same molecule, the 50% inhibitory concentration (IC50) (with Bel-7402; in the assay on GES1; with SH-SY5Y; in assay [1]; in the assay on HeLa; in the assay with MDA-MB-231) was above 30 µM throughout. In addition, the IC50 with MCF7, in the assay on MGC-803, with HCT-116 and with L02 was above 30 µM throughout. Further, the MIC was above 50 µM in the assay with Edwardsiella tarda; above 50 µM in the assay with Staphylococcus aureus; above 50 µM in the assay on Escherichia coli; above 50 µM in the assay with Staphylococcus; 3.13 µM (≈ 1.58 µg/mL) in the assay on Proteus mirabilis; 6.13 µM (≈ 3.09 µg/mL) with Vibrio parahaemolyticus. Further, the minimum inhibitory concentration (MIC) in the assay on Acinetobacter baumannii, with Bacillus subtilis, with Bacillus cereus and in the assay with Mycolicibacterium phlei was above 50 µM throughout.

On to `CCCCCCC1C([C@@H](O)C(=O)[C@H](O)CCC)C=C2C3(O)OC(=O)[C@]2(C)CC2=C(C(=O)OC2=O)C13` (stereo partly specified), for which the concentration for half-maximal inhibition (IC50) in the assay on K562, with A549, in the assay on PC-3, in the assay with U-87 MG, in the assay on ASPC1 and in the assay on NCI-H446 was above 30 µM in each case. Also, the IC50 (in the assay with Bel-7402; with GES1; in the assay on SH-SY5Y; in assay [1]; with HeLa; with MDA-MB-231) was above 30 µM throughout. Also, the IC50 in the assay with MCF7, with MGC-803, in the assay on HCT-116 and with L02 was above 30 µM in each case. Further, the minimum inhibitory concentration (MIC) with Edwardsiella tarda is above 50 µM; with Staphylococcus aureus it was above 50 µM; with Escherichia coli, above 50 µM; in the assay on Staphylococcus, above 50 µM; in the assay with Proteus mirabilis, 12.5 µM (≈ 6.13 µg/mL); with Vibrio parahaemolyticus it was above 50 µM. In addition, the minimal inhibitory concentration (MIC) in the assay with Acinetobacter baumannii, with Bacillus subtilis, in the assay on Bacillus cereus and with Mycolicibacterium phlei was above 50 µM each time.

Take `CCCC[C@H]1CC2C([C@@H](O)C(=O)[C@H](O)CCC)C=C3C4(OC(=O)[C@]3(C)CC3=C(C(=O)OC3=O)C24)O1` (stereo partly specified): the IC50 in the assay with K562, in the assay with A549, in the assay with PC-3, with U-87 MG, with ASPC1 and in the assay on NCI-H446 was above 30 µM each time. In addition, the IC50 (with Bel-7402; in the assay on GES1; with SH-SY5Y; in [1]; in the assay on HeLa; in the assay on MDA-MB-231) was above 30 µM in each case. For the same molecule, the IC50 in the assay with MCF7, with MGC-803, in the assay on HCT-116 and with L02 was above 30 µM each time. Further, the MIC with Edwardsiella tarda, in the assay with Staphylococcus aureus, with Escherichia coli, in the assay on Staphylococcus, in the assay on Proteus mirabilis and in the assay with Vibrio parahaemolyticus was above 50 µM in each case. Moreover, the minimal inhibitory concentration (MIC) in the assay with Acinetobacter baumannii, in the assay on Bacillus subtilis, in the assay on Bacillus cereus and in the assay on Mycolicibacterium phlei was above 50 µM each time.

As for `CCCCCCC1C2C(=O)C(=CC1[C@@H](O)C(=O)[C@H](O)CCC)[C@](C)(C(=O)OC)CC1=C2C(=O)OC1=O` (stereo partly specified), the 50% inhibitory concentration (IC50) with K562, in the assay with A549, in the assay with PC-3, in the assay on U-87 MG, in the assay on ASPC1 and in the assay on NCI-H446 was above 30 µM each time. Moreover, the half-maximal inhibitory concentration (IC50) (in the assay on Bel-7402; with GES1; with SH-SY5Y; in assay [1]; with HeLa; with MDA-MB-231) was above 30 µM each time. Also, the IC50 in the assay with MCF7, with MGC-803, in the assay with HCT-116 and with L02 was above 30 µM in each case. Further, the MIC with Edwardsiella tarda, in the assay on Staphylococcus aureus, in the assay with Escherichia coli, in the assay on Staphylococcus, in the assay on Proteus mirabilis and with Vibrio parahaemolyticus was above 50 µM throughout. The MIC in the assay with Acinetobacter baumannii, in the assay on Bacillus subtilis, with Bacillus cereus and in the assay with Mycolicibacterium phlei was above 50 µM in each case.

Regarding `CCCCCCC1C([C@@H](O)C(=O)[C@H](C)CCC)C=C2C3(OC)OC(=O)[C@]2(C)CC2=C(C(=O)OC2=O)C13` (stereo partly specified), the IC50 in the assay on K562, in the assay on A549, with PC-3, with U-87 MG, in the assay with ASPC1 and in the assay on NCI-H446 was above 30 µM in each case. Besides, the IC50 (in the assay on Bel-7402; in the assay with GES1; in the assay with SH-SY5Y; in [1]; in the assay on HeLa; with MDA-MB-231) was above 30 µM each time. The IC50 with MCF7, with MGC-803, in the assay with HCT-116 and with L02 was above 30 µM each time. Also, the MIC with Edwardsiella tarda, with Staphylococcus aureus, in the assay with Escherichia coli, with Staphylococcus, with Proteus mirabilis and in the assay on Vibrio parahaemolyticus was above 50 µM throughout. The minimum inhibitory concentration (MIC) in the assay on Acinetobacter baumannii, with Bacillus subtilis, in the assay with Bacillus cereus and with Mycolicibacterium phlei was above 50 µM each time.

`CCCCCCC1C2C(=O)C(=CC1[C@@H](O)C(=O)[C@H](O)CCC)[C@@H](C)CC1=C2C(=O)OC1=O` (stereo partly specified): the IC50 with K562, in the assay with A549, in the assay with PC-3, with U-87 MG, in the assay with ASPC1 and with NCI-H446 was above 30 µM throughout. Also, the 50% inhibitory concentration (IC50) (in the assay on Bel-7402; in the assay with GES1; with SH-SY5Y; in assay [1]; in the assay with HeLa; in the assay with MDA-MB-231) was above 30 µM throughout. The half-maximal inhibitory concentration (IC50) in the assay with MCF7, with MGC-803, in the assay with HCT-116 and in the assay with L02 was above 30 µM each time. The MIC with Edwardsiella tarda, in the assay on Staphylococcus aureus, in the assay with Escherichia coli, with Staphylococcus, in the assay on Proteus mirabilis and with Vibrio parahaemolyticus was above 50 µM in each case. The MIC with Acinetobacter baumannii, in the assay on Bacillus subtilis, with Bacillus cereus and with Mycolicibacterium phlei was above 50 µM throughout.

Regarding `O=C(O)c1cn(C2CC2)c2cc(N3CCNCC3)c(F)cc2c1=O` [CIPROFLOXACIN], the MIC is 0.0245 µM (≈ 0.00812 µg/mL) in the assay with Edwardsiella tarda; 25 µM (≈ 8.28 µg/mL) with Staphylococcus aureus; 25 µM (≈ 8.28 µg/mL) in the assay with Escherichia coli; 25 µM (≈ 8.28 µg/mL) in the assay on Staphylococcus; 0.098 µM (≈ 0.0325 µg/mL) with Proteus mirabilis; 0.39 µM (≈ 0.129 µg/mL) with Vibrio parahaemolyticus. For the same molecule, the MIC is 25 µM (≈ 8.28 µg/mL) in the assay on Acinetobacter baumannii, 0.195 µM (≈ 0.0646 µg/mL) with Bacillus subtilis, 0.78 µM (≈ 0.258 µg/mL) with Bacillus cereus and 0.195 µM (≈ 0.0646 µg/mL) in the assay on Mycolicibacterium phlei.
